Patent US11109593B2, “Isoxazolin-5-one derivative and herbicide containing same as active ingredient” (HOKKO CHEMICAL INDUSTRY CO., LTD., priority 2017, dated 2021)

Columns and labels:
Type in all cases: in vivo
Amaranthus viridis [1] = assay: Test Example 4: herbicidal effect test by treatment of leave and stem in dry field farming (seven days after seeding); settings: 120 g/10a active ingredient; emulsion sprayed seven days after seeding; evaluated 14 days after treatment
How it was run: (§1)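 Duplicate pots were scored 14 days post-spray by dry weight, herbicidal rate = {1 − treated/untreated average dry weight} × 100. The water-diluted emulsion, equivalent to 120 g active ingredient per 10 ares in 100 L, was applied seven days after sowing 20 seeds each into the upper 1 cm of alluvial soil.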

Chenopodium album [2] = assay: as above; settings: 120 g/10a active ingredient; emulsion sprayed seven days after seeding; evaluated 14 days after treatment
How it was run: as §1

southern crabgrass [3] = assay: as above; settings: 120 g/10a active ingredient; emulsion sprayed seven days after seeding; evaluated 14 days after treatment
How it was run: as §1

Echinochloa crus-galli [4] = assay: as above; settings: 120 g/10a active ingredient; emulsion sprayed seven days after seeding; evaluated 14 days after treatment
How it was run: as §1

Scirpus juncoides [5] = assay: Test Example 2: herbicidal effect test by treatment during growing period in paddy rice cultivation (seven days after seeding); settings: 120 g/10a active ingredient, assessed 14 days after treatment, dry weight vs untreated area
How it was run: (§2)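 Herbicidal rate = (1 − treated/untreated mean dry weight) × 100, scored 14 days after application, two replicates per rate. Treatment: diluted emulsion dropped onto paddy water seven days after sowing, 120 g active ingredient per 10 ares, in a glass greenhouse.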

[6] = system: broad leaf weeds (Lindernia pyxidaria and Monochoria vaginalis); assay: as above; settings: 120 g/10a active ingredient, assessed 14 days after treatment, dry weight vs untreated area
How it was run: as §2

Echinochloa crus-galli [7] = assay: as above; settings: 120 g/10a active ingredient, assessed 14 days after treatment, dry weight vs untreated area
How it was run: as §2

Amaranthus viridis [8] = assay: Test Example 3: herbicidal effect test by treatment of dry field farming soil (one day after seeding); settings: 120 g/10a active ingredient, evaluated 14 days after treatment
How it was run: (§3)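 Seeds (20 each) mixed into top 1 cm of alluvium in pots, surface pressed. One day later, diluted emulsion sprayed onto soil, 100 L/10 a, 120 g a.i./10 a. Dry weight at 14 d vs untreated gave % herbicidal rate; n=2.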

Chenopodium album [9] = assay: as above; settings: 120 g/10a active ingredient, evaluated 14 days after treatment
How it was run: as §3

southern crabgrass [10] = assay: as above; settings: 120 g/10a active ingredient, evaluated 14 days after treatment
How it was run: as §3

Echinochloa crus-galli [11] = assay: as above; settings: 120 g/10a active ingredient, evaluated 14 days after treatment
How it was run: as §3

Scirpus juncoides [12] = assay: Test Example 1: herbicidal effect test by treatment of rice paddy soil (immediately after seeding); settings: 120 g/10a active ingredient, dry weight vs untreated area, 14 days after treatment
How it was run: (§4)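 Flooded paddy pot test in a glass greenhouse: emulsion diluted in water, dropped at 120 g a.i. per 10 ares just after sowing, water depth kept about 3 cm. Dry-weight reduction relative to untreated plants is scored at 14 days.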

[13] = system: broad leaf weeds (Lindernia pyxidaria and Monochoria vaginalis); assay: as above; settings: 120 g/10a active ingredient, dry weight vs untreated area, 14 days after treatment
How it was run: as §4

Echinochloa crus-galli [14] = assay: as above; settings: 120 g/10a active ingredient, dry weight vs untreated area, 14 days after treatment
How it was run: as §4

SMILES	herbicidal effect (herbicidal rate), Amaranthus viridis (Amaranthus viridis [1])	herbicidal effect (herbicidal rate), Chenopodium album (Chenopodium album [2])	herbicidal effect (herbicidal rate), southern crabgrass (southern crabgrass [3])	herbicidal effect (herbicidal rate), Echinochloa crus-galli (Echinochloa crus-galli [4])	Herbicidal rate (%) Scirpus juncoides (Scirpus juncoides [5])	Herbicidal rate (%) Lindernia pyxidaria [6]	Herbicidal rate (%) Monochoria vaginalis [6]	Herbicidal rate (%) Echinochloa crus-galli (Echinochloa crus-galli [7])	herbicidal rate, Amaranthus viridis (Amaranthus viridis [8])	herbicidal rate, Chenopodium album (Chenopodium album [9])	herbicidal rate, southern crabgrass (southern crabgrass [10])	herbicidal rate, Echinochloa crus-galli (Echinochloa crus-galli [11])	Herbicidal rate (%) Scirpus juncoides (Scirpus juncoides [12])	Herbicidal rate (%) Lindernia pyxidaria [13]	Herbicidal rate (%) Monochoria vaginalis [13]	Herbicidal rate (%) Echinochloa crus-galli (Echinochloa crus-galli [14])
Cc1c(Cc2ccccc2NS(=O)(=O)C(F)(F)F)c(=O)on1Cc1ccc(F)cc1 [Compound 1-183]	40%	50%	50%	90%	100%	100%	100%	80%	50%	60%	90%	90%	100%	100%	100%	100%
Cc1ccc(C(C)n2oc(=O)c(Cc3ccccc3NS(=O)(=O)C(F)(F)F)c2C)cc1 (centres unmarked) [Compound 1-208]	40%	40%	0%	90%	80%	60%	90%	90%	40%	40%	50%	100%	90%	80%	90%	90%
CCC(c1ccccc1)n1oc(=O)c(Cc2ccccc2NS(=O)(=O)C(F)(F)F)c1C (centres unmarked) [Compound 1-211]	40%	50%	60%	90%	90%	60%	80%	90%	0%	0%	90%	90%	90%	90%	90%	90%
CCCC(c1ccccc1)n1oc(=O)c(Cc2ccccc2NS(=O)(=O)C(F)(F)F)c1C (centres unmarked) [Compound 1-212]	80%	60%	90%	90%	90%	70%	90%	90%	0%	0%	90%	90%	90%	90%	80%	90%
Cc1c(Cc2ccccc2NS(=O)(=O)C(F)(F)F)c(=O)on1C(c1ccccc1)C(C)C (centres unmarked) [Compound 1-213]	40%	50%	90%	90%	80%	70%	80%	90%	100%	100%	100%	100%	90%	90%	90%	100%
CCCCC(c1ccccc1)n1oc(=O)c(Cc2ccccc2NS(=O)(=O)C(F)(F)F)c1C (centres unmarked) [Compound 1-214]	40%	50%	50%	60%	80%	70%	80%	90%	90%	90%	70%	80%	90%	100%	90%	100%
CCCCCC(c1ccccc1)n1oc(=O)c(Cc2ccccc2NS(=O)(=O)C(F)(F)F)c1C (centres unmarked) [Compound 1-215]	50%	40%	50%	40%	90%	90%	80%	90%	40%	40%	50%	50%	90%	100%	80%	100%
Cc1c(Cc2ccccc2NS(=O)(=O)C(F)(F)F)c(=O)on1C(C)Cc1ccccc1 (centres unmarked) [Compound 1-218]	60%	40%	40%	90%	90%	40%	80%	90%	40%	40%	40%	80%	90%	90%	90%	100%
